From ChEMBL document CHEMBL1909046, “DrugMatrix in vitro pharmacology data”

How the values were obtained:
[1] = biological target: cGMP-specific 3',5'-cyclic phosphodiesterase (Homo sapiens, UniProt O76074); assay: DRUGMATRIX: Phosphodiesterase PDE5 enzyme inhibition (substrate: [3H]cGMP + cGMP); type: tissue-based, Platelet; conditions: platelet; Not Active = under 50% inhibition at 10 µM
[2] = biological target: Melanocortin receptor 3 (Homo sapiens, UniProt P41968); type: cell membranes, Membrane; conditions: hek293; note: in other assays of this panel Not Active means under 50% inhibition at 10 µM
Sequence of Melanocortin receptor 3 (P41968 whole entry): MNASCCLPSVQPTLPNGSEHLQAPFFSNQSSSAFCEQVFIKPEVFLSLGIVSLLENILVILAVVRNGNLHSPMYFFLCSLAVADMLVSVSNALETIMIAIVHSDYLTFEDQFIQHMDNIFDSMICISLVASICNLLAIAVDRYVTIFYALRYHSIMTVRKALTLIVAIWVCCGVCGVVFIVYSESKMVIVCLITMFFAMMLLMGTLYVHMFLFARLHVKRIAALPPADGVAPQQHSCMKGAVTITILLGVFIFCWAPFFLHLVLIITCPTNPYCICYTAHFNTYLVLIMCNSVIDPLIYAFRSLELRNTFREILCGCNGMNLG

[3] = biological target: T1, Progesterone receptor (Bos taurus, UniProt Q690N0); assay: DRUGMATRIX: Progesterone radioligand binding (ligand: [3H] R-5020); type: tissue-based, Uterus; conditions: Not Active = under 50% inhibition at 10 µM; for Ki: read-out: Ki
T1 sequence (Q690N0 whole entry): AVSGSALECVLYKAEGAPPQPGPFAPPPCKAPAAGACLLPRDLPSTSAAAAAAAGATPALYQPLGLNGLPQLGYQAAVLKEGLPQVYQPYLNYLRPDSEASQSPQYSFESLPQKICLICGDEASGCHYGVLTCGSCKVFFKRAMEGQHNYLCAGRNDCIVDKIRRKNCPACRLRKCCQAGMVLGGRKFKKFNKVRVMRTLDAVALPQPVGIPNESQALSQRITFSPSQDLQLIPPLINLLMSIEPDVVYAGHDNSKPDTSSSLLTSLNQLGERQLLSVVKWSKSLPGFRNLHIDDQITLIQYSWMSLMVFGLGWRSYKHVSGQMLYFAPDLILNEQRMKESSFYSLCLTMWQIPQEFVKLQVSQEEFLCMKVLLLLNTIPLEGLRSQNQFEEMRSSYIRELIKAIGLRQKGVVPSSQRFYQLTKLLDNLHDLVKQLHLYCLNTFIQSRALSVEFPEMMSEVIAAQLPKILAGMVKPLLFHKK

[4] = biological target: Delta-type opioid receptor (Homo sapiens, UniProt P41143); type: cell membranes, HEK293, Membrane; conditions: hek293; note: in other assays of this panel Not Active means under 50% inhibition at 10 µM
Sequence of Delta-type opioid receptor (P41143 whole entry): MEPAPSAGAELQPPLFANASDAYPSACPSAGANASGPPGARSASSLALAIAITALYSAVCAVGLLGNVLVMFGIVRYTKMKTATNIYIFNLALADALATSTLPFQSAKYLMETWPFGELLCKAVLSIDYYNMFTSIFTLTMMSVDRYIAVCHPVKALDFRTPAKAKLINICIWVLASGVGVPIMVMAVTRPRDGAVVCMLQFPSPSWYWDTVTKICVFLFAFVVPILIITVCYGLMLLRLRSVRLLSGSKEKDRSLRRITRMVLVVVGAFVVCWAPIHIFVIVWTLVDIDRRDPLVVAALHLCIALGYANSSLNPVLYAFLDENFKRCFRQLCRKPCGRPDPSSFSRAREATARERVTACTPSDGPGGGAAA

[5] = biological target: T2, Cholecystokinin receptor type A (Homo sapiens, UniProt P32238); type: cell membranes, Membrane; conditions: 1321-n1; note: in other assays of this panel Not Active means under 50% inhibition at 10 µM
T2 sequence (P32238 whole entry): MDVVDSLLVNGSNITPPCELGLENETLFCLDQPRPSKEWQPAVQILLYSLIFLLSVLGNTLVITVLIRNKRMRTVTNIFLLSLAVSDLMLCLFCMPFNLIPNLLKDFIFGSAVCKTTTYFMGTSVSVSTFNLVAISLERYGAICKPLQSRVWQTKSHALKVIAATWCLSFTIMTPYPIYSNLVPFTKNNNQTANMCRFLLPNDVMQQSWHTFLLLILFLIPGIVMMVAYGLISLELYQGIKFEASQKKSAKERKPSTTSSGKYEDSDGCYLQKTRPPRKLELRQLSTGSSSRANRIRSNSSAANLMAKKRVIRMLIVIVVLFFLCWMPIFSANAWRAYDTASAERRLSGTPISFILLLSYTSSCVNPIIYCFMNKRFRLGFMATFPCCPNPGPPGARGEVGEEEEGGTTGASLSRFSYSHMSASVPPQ

[6] = DRUGMATRIX: GABAA, Chloride Channel, TBOB radioligand binding (ligand: [3H] TBOB); type: cell membranes, Rattus norvegicus, Wistar, Cerebral cortex, Membrane; conditions: Not Active = under 50% inhibition at 10 µM
[7] = DRUGMATRIX: beta-Lactamase enzyme inhibition (substrate: Nitrocefin); design: species or system Bacillus cereus; conditions: Not Active = under 50% inhibition at 10 µM

Structure (SMILES) | IC50 [1] | IC50 [2] | IC50 [3] | IC50 [4] | IC50 [5] | IC50 [6] | Ki [6] | IC50 [7] | Ki [7] | IC50 ([3]; read-out: IC50) | Ki [3]
CC(C)C[C@H]1C(=O)N2CCC[C@H]2[C@]2(O)O[C@](NC(=O)[C@@H]3C=C4c5cccc6[nH]cc(c56)C[C@H]4N(C)C3)(C(C)C)C(=O)N12 [ERGOCRYPTINE] | Not Active | Not Active | Not Active | Not Active | Not Active | Not Active | Not Active | Not Active | Not Active |  | 
C[C@]12CC[C@@H]3c4ccc(O)cc4CC[C@H]3[C@@H]1C[C@@H](O)[C@@H]2O [ESTRIOL] | Not Active | Not Active | Not Active | Not Active | Not Active | Not Active | Not Active | Not Active | Not Active |  | 
C#C[C@]1(O)CC[C@H]2[C@@H]3CCC4=CC(=O)CC[C@]4(C)[C@H]3CC[C@@]21C [ETHISTERONE] | Not Active | Not Active |  | Not Active | Not Active | Not Active | Not Active | Not Active | Not Active | 59 nM | 7.75 nM
CC(C)(C(=O)O)c1ccc(C(O)CCCN2CCC(C(O)(c3ccccc3)c3ccccc3)CC2)cc1 (centres undefined) [FEXOFENADINE] | Not Active | Not Active | Not Active | Not Active | Not Active | Not Active | Not Active | Not Active | Not Active |  | 
CN1CCN(c2c(F)cc3c(=O)c(C(=O)O)cn(CCF)c3c2F)CC1 [FLEROXACIN] | Not Active | Not Active | Not Active | Not Active | Not Active | Not Active | Not Active | Not Active | Not Active |  | 
O=c1[nH]c(=O)n([C@H]2C[C@H](O)[C@@H](CO)O2)cc1F [FLOXURIDINE] | Not Active | Not Active | Not Active | Not Active | Not Active | Not Active | Not Active | Not Active | Not Active |  | 
COC(=O)Nc1nc2cc(C(=O)c3ccc(F)cc3)ccc2[nH]1 [FLUBENDAZOLE] | Not Active | Not Active | Not Active | Not Active | Not Active | Not Active | Not Active | Not Active | Not Active |  | 
CC(=O)OCC(=O)[C@@]1(O)CC[C@H]2[C@@H]3CCC4=CC(=O)CC[C@]4(C)[C@@]3(F)[C@@H](O)C[C@@]21C [FLUDROCORTISONE ACETATE] | Not Active | Not Active | Not Active | Not Active | Not Active | Not Active | Not Active | Not Active | Not Active |  | 
CCOC(=O)c1ncn2c1CN(C)C(=O)c1cc(F)ccc1-2 [FLUMAZENIL] | Not Active | Not Active | Not Active | Not Active | Not Active | Not Active | Not Active | Not Active | Not Active |  | 
CC(=O)OCC(=O)[C@@]12OC(C)(C)O[C@@H]1C[C@H]1[C@@H]3C[C@H](F)C4=CC(=O)C=C[C@]4(C)[C@@]3(F)[C@@H](O)C[C@@]12C [FLUOCINONIDE] | Not Active | Not Active |  | Not Active | Not Active | Not Active | Not Active | Not Active | Not Active | 22 nM | 2.9 nM
O=C(O)P(=O)(O)O [FOSCARNET] | Not Active | Not Active | Not Active | Not Active | Not Active | Not Active | Not Active | Not Active | Not Active |  | 
Cc1ccc(C)c(OCCCC(C)(C)C(=O)O)c1 [GEMFIBROZIL] | Not Active | Not Active | Not Active | Not Active | Not Active | Not Active | Not Active | Not Active | Not Active |  | 
O=c1c(-c2ccc(O)cc2)coc2cc(O)cc(O)c12 [GENISTEIN] | Not Active | Not Active | Not Active | Not Active | Not Active | Not Active | Not Active | Not Active | Not Active |  | 
